The record followed here is patent publication US20240270762A1, “PENICILLIN-BINDING PROTEIN INHIBITORS” (priority 2021, published 2024).

As usually defined, the EC50 is the concentration at which the effect is half-maximal.

Each structure is given as a SMILES string. Converted amounts (≈) assume the structure as drawn.

One test concerns E. coli AG100. Put plainly: microbe, parasite or virus in culture. It is filed as cell-based. Particulars: Escherichia coli, AG100, read-out: MIC E. coli AG100.
Another test concerns N. gonorrhoeae WHO X. Kind of test: Liquid broth MIC in Fastidious broth. Particulars: Neisseria gonorrhoeae, read-out: Minimum Inhibitory Concentration (MIC), N. gonorrhoeae WHO X.
Test [1] concerns the target T1, PBP3 from Escherichia coli (K-12) (Escherichia coli, UniProt P0AD68).
T1 construct: made in house
Kind of test: Bocillin-FL fluorescence polarization competition binding, E. coli PBP3. The source says:
To determine the ability of boronic acid-based test PBP inhibitors to bind Penicillin Binding Proteins (PBPs), Bocillin-FL (fluorescently-labeled penicillin V; ThermoFisher Scientific) was used in a fluorescence polarization (FP) competition binding assay to assess inhibitor binding to PBP3 from Escherichia coli (K-12), PBP3 from Pseudomonas aeruginosa (PAO1), PBP1a and PBP3 from Acinetobacter baumannii (ATCC 19606), and PBP2 from Neisseria gonorrhoeae (FA19). PBPs were cloned and purified as described previously (E. coli PBP3, King, D. T, et al., ACS Infectious Diseases 2015, 1, 175-184; P. aeruginosa PBP3, Han et. al., PNAS 2010, 107 (51), 22002-22007; A. baumannii PBPs, Penwell et. al., Antimicrob. Agents Chemother. 2015, 59 (3), 1680-1689; N. gonorrhoeae PBP2, Singh et. al., J. Biol. Chem. 2019, 294 (38), 14020-14032). To establish assay conditions for competition binding, enzyme titration/saturation binding experiments were initially performed. Bocillin-FL was prepared at 0.2 μM in a buffer comprised of 50 mM Hepes (pH 8.0), 300 mM NaCl and 10% (v/v) glycerol for reactions with E. coli, P. aeruginosa and N. gonorrhoeae PBPs, and 25 mM Tris (pH 8.0), 200 mM NaCl, 10% (v/v) glycerol and 0.005% (v/v) Tween 20 for reactions with A. baumannii PBPs. Saturation binding was performed by mixing 40 μl of PBP solutions ranging in concentrations from 0-24 μM with 40 μl of the 0.2 μM Bocillin-FL solution, in individual wells of a black 384-well microplate. FP was measured immediately upon mixing (Excitation, 490 nm; Emission, 520 nm; g-factor, 0.96), using a Cytation3 (BioTek) microplate reader and measured continuously for up to 120 minutes. The FP response stabilized after 15 minutes for P. aeruginosa and A. baumannii PBP3, 30 minutes for E. coli PBP3 and A. baumannii PBP1a, and less than 1 minute for N. gonorrhoeae PBP2. […] The competition binding assay (80 μl final volume) was validated using beta-lactams and PBPs at final concentrations of: 1.5 μM for E. coli PBP3; 0.75 μM for P. aeruginosa PBP3; 1 μM for A. baumannii PBP1a; 0.2 μM for A. baumannii PBP3; and 0.25 μM for N. gonorrhoeae PBP2. Bocillin-FL was at 0.1 μM (0.05 μM with A. baumannii PBP1a) and beta-lactam concentrations ranged from 0-1,000 μM. E. coli PBP3 was incubated with increasing concentrations of ampicillin in a black 384-well microplate (Corning) for 30 minutes. P. aeruginosa PBP3 was incubated for 15 minutes with aztreonam, whereas A. baumannii PBP1a and PBP3 were incubated for 15 minutes with meropenem, and then Bocillin-FL was added followed immediately by the FP measurement for up to 60 minutes. […] The beta-lactam potency was reported as the concentration of beta-lactam required to reduce the amount of PBP bound-Bocillin-FL by 50% (EC50). […] The EC50 of aztreonam was determined to be <0.5 μM for P. aeruginosa PBP3. […] Binding assays for boronic acid PBP inhibitors were performed in an identical fashion for the respective PBPs.
On the technique in general: Polarisation of emitted light reports the rotation of a fluorescent probe.

The subject of the next test is N. gonorrhoeae WHO Z. Put plainly: Liquid broth MIC in Fastidious broth. Particulars: Neisseria gonorrhoeae, read-out: Minimum Inhibitory Concentration (MIC), N. gonorrhoeae WHO Z.

T1 sequence (P0AD68 1-577): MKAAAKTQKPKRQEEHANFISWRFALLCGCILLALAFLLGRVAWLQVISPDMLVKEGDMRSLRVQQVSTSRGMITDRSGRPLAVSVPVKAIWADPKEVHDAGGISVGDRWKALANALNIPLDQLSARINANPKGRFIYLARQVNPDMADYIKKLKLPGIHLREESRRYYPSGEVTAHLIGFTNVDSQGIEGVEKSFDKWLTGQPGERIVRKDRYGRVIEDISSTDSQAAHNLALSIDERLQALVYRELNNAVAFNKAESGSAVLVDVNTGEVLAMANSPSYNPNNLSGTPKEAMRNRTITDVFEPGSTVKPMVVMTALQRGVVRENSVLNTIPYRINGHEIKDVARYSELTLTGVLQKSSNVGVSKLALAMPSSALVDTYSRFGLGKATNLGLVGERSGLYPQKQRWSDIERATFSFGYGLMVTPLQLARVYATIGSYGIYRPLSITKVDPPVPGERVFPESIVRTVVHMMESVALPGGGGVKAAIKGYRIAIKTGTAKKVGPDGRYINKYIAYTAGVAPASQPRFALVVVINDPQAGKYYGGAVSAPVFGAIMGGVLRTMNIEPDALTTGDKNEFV

Turning to `Nc1ncc(C(=O)N[C@@H](C(=O)N[C@H]2Cc3cccc(C(=O)O)c3OB2O)c2ccc(P(=O)(O)O)cc2)s1` (racemic) [Example 50, (R)-3-((S)-2-(2-aminothiazole-5-carboxamido)-2-(4-phosphonophenyl)acetamido)-2-hydroxy-3,4-dihydro-2H-benzo[e][1,2]oxaborinine-8-carboxylic acid and (R)-3-((R)-2-(2-aminothiazole-5-carboxamido)-2-(4-phosphonophenyl)acetamido)-2-hydroxy-3,4-dihydro-2H-benzo[e][1,2]oxaborinine-8-carboxylic acid], the MIC with E. coli AG100 was more than 128 µg/mL; in the test with N. gonorrhoeae WHO X, 16 to 32 µg/mL (≈ 29.3 to 58.6 µM); in the test with N. gonorrhoeae WHO Z it was 16 to 32 µg/mL (≈ 29.3 to 58.6 µM). The EC50 in test [1] was 50 to 250 µM.
`Nc1nc(C(=O)N[C@@H](C(=O)N[C@H]2Cc3cccc(C(=O)O)c3OB2O)c2ccc(P(=O)(O)O)cc2)cs1` (racemic) [Example 51, (R)-3-((S)-2-(2-aminothiazole-4-carboxamido)-2-(4-phosphonophenyl)acetamido)-2-hydroxy-3,4-dihydro-2H-benzo[e][1,2]oxaborinine-8-carboxylic acid and (R)-3-((R)-2-(2-aminothiazole-4-carboxamido)-2-(4-phosphonophenyl)acetamido)-2-hydroxy-3,4-dihydro-2H-benzo[e][1,2]oxaborinine-8-carboxylic acid]: the MIC in the test on E. coli AG100 was more than 128 µg/mL; in the test with N. gonorrhoeae WHO X, 4 to 8 µg/mL (≈ 7.32 to 14.6 µM); with N. gonorrhoeae WHO Z, 1 to 2 µg/mL (≈ 1.83 to 3.66 µM). Further, in test [1], the EC50 was in the range of 10 to 50 µM.
On the same counts, the results for `CN1CCC[C@@H]1C(=O)N[C@@H](C(=O)N[C@H]1Cc2cccc(C(=O)O)c2OB1O)c1ccc(P(=O)(O)O)cc1` (racemic) [Example 54, (R)-2-hydroxy-3-((S)-2-((R)-1-methylpyrrolidine-2-carboxamido)-2-(4-phosphonophenyl)acetamido)-3,4-dihydro-2H-benzo[e][1,2]oxaborinine-8-carboxylic acid and (R)-2-hydroxy-3-((R)-2-((R)-1-methylpyrrolidine-2-carboxamido)-2-(4-phosphonophenyl)acetamido)-3,4-dihydro-2H-benzo[e][1,2]oxaborinine-8-carboxylic acid] are more than 128 µg/mL, 16 to 32 µg/mL (≈ 30.1 to 60.2 µM), 16 to 32 µg/mL (≈ 30.1 to 60.2 µM) and 50 to 250 µM.
On the same counts, the results for `CCN1CCN(C(=O)N[C@@H](C(=O)N[C@H]2Cc3cccc(C(=O)O)c3OB2O)c2ccc(P(=O)(O)O)c(F)c2)C(=O)C1=O` (single isomer, unassigned) [Example 7] are 8 to 16 µg/mL (≈ 13.2 to 26.4 µM), less than 1 µg/mL, less than 1 µg/mL and less than 10 µM.
For `CCN1CCN(C(=O)N[C@H](C(=O)N[C@H]2Cc3ccc(F)c(C(=O)O)c3OB2O)c2ccc(P(=O)(O)O)cc2)C(=O)C1=O` (single isomer, unassigned) [Example 9], in that order: more than 128 µg/mL, 1 to 2 µg/mL (≈ 1.65 to 3.3 µM), less than 1 µg/mL and 50 to 250 µM.
For `CCN1CCN(C(=O)N[C@@H](C(=O)N[C@H]2Cc3ccc(F)c(C(=O)O)c3OB2O)c2ccc(P(=O)(O)O)cc2)C(=O)C1=O` (single isomer, unassigned) [Example 10], the results for the MIC with E. coli AG100, in the test with N. gonorrhoeae WHO X and in the test on N. gonorrhoeae WHO Z were more than 128 µg/mL, less than 1 µg/mL and less than 1 µg/mL, respectively. For the same compound, the EC50 in test [1] is less than 10 µM.
With `CS(=O)(=O)N1CCN(C(=O)N[C@@H](C(=O)N[C@H]2Cc3cccc(C(=O)O)c3OB2O)c2ccc(P(=O)(O)O)c(F)c2F)C1=O` (single isomer, unassigned) [Example 13], the figures for the MIC in the test on E. coli AG100, in the test with N. gonorrhoeae WHO X and in the test on N. gonorrhoeae WHO Z were 32 to 64 µg/mL (≈ 49.5 to 99 µM), less than 1 µg/mL and less than 1 µg/mL, respectively. The same compound displayed an EC50 in test [1] of less than 10 µM.
With `O=C(O)c1c(F)ccc2c1OB(O)[C@@H](NC(=O)C(NC(=O)N1CCN(Cc3ccc(O)c(O)c3Cl)C(=O)C1=O)c1ccc(P(=O)(O)O)cc1)C2` (stereo partly drawn) [Example 8, (3R)-3-(2-(4-(2-chloro-3,4-dihydroxybenzyl)-2,3-dioxopiperazine-1-carboxamido)-2-(4-phosphonophenyl)acetamido)-7-fluoro-2-hydroxy-3,4-dihydro-2H-benzo[e][1,2]oxaborinine-8-carboxylic acid], the MIC is 4 to 8 µg/mL (≈ 5.44 to 10.9 µM) with N. gonorrhoeae WHO X and less than 1 µg/mL in the test with N. gonorrhoeae WHO Z. Also, the EC50 in test [1] is less than 10 µM.
For `O=C(O)c1c(F)ccc2c1OB(O)[C@@H](NC(=O)C(NC(=O)N1CCN(Cc3ccc(O)c(O)c3Cl)C(=O)C1=O)c1ccc(P(=O)(O)O)c(F)c1)C2` (stereo partly drawn) [Example 23, (3R)-3-(2-(4-(2-chloro-3,4-dihydroxybenzyl)-2,3-dioxopiperazine-1-carboxamido)-2-(3-fluoro-4-phosphonophenyl)acetamido)-7-fluoro-2-hydroxy-3,4-dihydro-2H-benzo[e][1,2]oxaborinine-8-carboxylic acid], in that order: 1 to 2 µg/mL (≈ 1.33 to 2.66 µM), less than 1 µg/mL and less than 10 µM.
For `O=C(O)c1cccc2c1OB(O)[C@@H](NC(=O)C(NC(=O)N1CCN(Cc3ccc(O)c(O)c3Cl)C(=O)C1=O)c1ccc(P(=O)(O)O)cc1)C2` (stereo partly drawn) [Example 24, (3R)-3-(2-(4-(2-chloro-3,4-dihydroxybenzyl)-2,3-dioxopiperazine-1-carboxamido)-2-(4-phosphonophenyl)acetamido)-2-hydroxy-3,4-dihydro-2H-benzo[e][1,2]oxaborinine-8-carboxylic acid], in that order: 16 to 32 µg/mL (≈ 22.3 to 44.6 µM), 1 to 2 µg/mL (≈ 1.4 to 2.79 µM) and less than 10 µM.
On the same counts, the results for `O=C(O)c1c(F)ccc2c1OB(O)[C@@H](NC(=O)C(NC(=O)N1CCN(Cc3cc(F)c(O)c(O)c3Cl)C(=O)C1=O)c1ccc(P(=O)(O)O)cc1)C2` (stereo partly drawn) [Example 45, (3R)-3-(2-(4-(2-chloro-5-fluoro-3,4-dihydroxybenzyl)-2,3-dioxopiperazine-1-carboxamido)-2-(4-phosphonophenyl)acetamido)-7-fluoro-2-hydroxy-3,4-dihydro-2H-benzo[e][1,2]oxaborinine-8-carboxylic acid] are 4 to 8 µg/mL (≈ 5.31 to 10.6 µM), 1 to 2 µg/mL (≈ 1.33 to 2.66 µM) and less than 10 µM.
As for `O=C(O)c1c(F)ccc2c1OB(O)[C@@H](NC(=O)C(NC(=O)N1CCN(Cc3ccc(O)c(O)c3Cl)C1=O)c1ccc(P(=O)(O)O)cc1)C2` (stereo partly drawn) [Example 46, (3R)-3-(2-(3-(2-chloro-3,4-dihydroxybenzyl)-2-oxoimidazolidine-1-carboxamido)-2-(4-phosphonophenyl)acetamido)-7-fluoro-2-hydroxy-3,4-dihydro-2H-benzo[e][1,2]oxaborinine-8-carboxylic acid], the values for the MIC with N. gonorrhoeae WHO X and in the test on N. gonorrhoeae WHO Z were 1 to 2 µg/mL (≈ 1.41 to 2.83 µM) and less than 1 µg/mL, respectively. This compound had a half-maximal effective concentration (EC50) in test [1] of less than 10 µM.
`O=C(N[C@@H](C(=O)N[C@H]1Cc2cccc(C(=O)O)c2OB1O)c1ccc(P(=O)(O)O)cc1)c1ccc(O)c(O)c1Cl` [Example 49, (R)-3-((R)-2-(2-chloro-3,4-dihydroxybenzamido)-2-(4-phosphonophenyl)acetamido)-2-hydroxy-3,4-dihydro-2H-benzo[e][1,2]oxaborinine-8-carboxylic acid] had a half-maximal effective concentration (EC50) in test [1] of more than 250 µM.
Still for that read-out and setting: for `O=C(NCCN1CCN(C(=O)NC(C(=O)N[C@H]2Cc3ccc(F)c(C(=O)O)c3OB2O)c2ccc(P(=O)(O)O)cc2)C(=O)C1=O)c1ccc(O)c(O)c1Cl` (stereo partly drawn) [Example 120, (3R)-3-(2-(4-(2-(2-chloro-3,4-dihydroxybenzamido)ethyl)-2,3-dioxopiperazine-1-carboxamido)-2-(4-phosphonophenyl)acetamido)-7-fluoro-2-hydroxy-3,4-dihydro-2H-benzo[e][1,2]oxaborinine-8-carboxylic acid] the value was less than 10 µM.
